Laboratory results as given in patent US12195427B2, “MASP-2 inhibitors and methods of use” (priority 2018, dated 2025).

Assays:
[1] = molecular target: MASP-2 (CCP1-CCP2-SP) (Homo sapiens (Human), UniProt O00187); assay: Enzymatic Assay for MASP-2 (fluorogenic substrate); type: biochemical
[2] = molecular target: human α-thrombin (Homo sapiens (Human), UniProt P00734); assay: Enzymatic Assay for Thrombin (Boc-VPR-AMC); type: biochemical
[3] = molecular target: MASP-2 CCP2-SP (Homo sapiens (Human), UniProt O00187); assay: MASP-2 co-crystallization, X-ray crystallography and structure analysis (H-bonds, van der Waals contacts); design: van der Waals contact distance, MASP-2 HIS 483 atom CD2 / van der Waals contact distance, MASP-2 HIS 483 atom NE2 / van der Waals contact distance, SER 654 C to compound atom / van der Waals contact distance, SER 654 O to compound atom / van der Waals contact distance, TRP 655 C to compound atom / van der Waals contact distance, MASP-2 GLY 528 atom CA / van der Waals contact distance TRP 655 atom CZ3 / van der Waals contact distance TRP 655 atom N / van der Waals contact distance TRP 655 atom CE3 / van der Waals contact distance GLY 656 atom C / van der Waals contact distance GLY 656 atom CA / van der Waals contact distance GLY 656 atom O / van der Waals contact distance, MASP-2 TYR 607 atom CD1 / van der Waals contact distance, MASP-2 PRO 606 atom O / d(C3,CA1) / d(CA1,N1)2 / d(H4,O1) / d(H4,O2) / d(O1,O2) / d(CA1,O2) / d(CA6,O1) / d(CA6,O2) / d(CA1,C5) / d(O2,H3) / d(N2,C2) / d(CA5,N2) / d(N2,C4) / d(N2,C6) / d(N2,CA3) / d(N2,O3) / d(O4,H2): unit not given beside the values;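 as to Ligand-pharmacophore element distance, pharmacophore element C2: distance from averaged pharmacophore element to bound ligand; missing value means element absent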;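 as to Ligand-pharmacophore element distance, pharmacophore element C3: distance from averaged pharmacophore element to bound ligand; missing value means element absent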;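 as to Ligand-pharmacophore element distance, pharmacophore element C4: distance from averaged pharmacophore element to bound ligand; missing value means element absent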;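 as to Ligand-pharmacophore element distance, pharmacophore element C5: distance from averaged pharmacophore element to bound ligand; missing value means element absent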
In short: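 Soaked crystals of recombinant CCP2-SP (E. coli) yield the structures, phased by molecular replacement on 1Q3X pieces. Hydrophobic or nonbonded contacts can also cover atom pairs that are potential hydrogen bonds.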

[4] = Table A5-1 pharmacophore: distance between elements, S2/S1 region
[5] = Table A5-2 pharmacophore distance, S3/S4 region
[6] = Table A7-1, between pharmacophore elements of the bound compound
[7] = Table A8-6, nearest protein atom in cell to the left

MASP-2 CCP2-SP, sequence (O00187 445-686): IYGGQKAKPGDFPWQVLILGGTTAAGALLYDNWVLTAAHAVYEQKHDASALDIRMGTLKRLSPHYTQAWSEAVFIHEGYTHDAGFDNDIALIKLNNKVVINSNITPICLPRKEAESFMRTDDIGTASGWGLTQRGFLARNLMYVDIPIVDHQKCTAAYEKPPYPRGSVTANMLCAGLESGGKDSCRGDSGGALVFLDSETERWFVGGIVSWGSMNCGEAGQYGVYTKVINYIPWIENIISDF
MASP-2 CCP2-SP, sequence (O00187 364-432 partner): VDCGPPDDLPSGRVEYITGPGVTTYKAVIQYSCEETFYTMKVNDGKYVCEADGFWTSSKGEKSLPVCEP
MASP-2 (CCP1-CCP2-SP), sequence (O00187 445-686): as the sequence (O00187 445-686) above

C[C@H](NC(=O)[C@H](N)CCc1cccc(Cl)c1)C(=O)NCc1ccc(C(=N)N)cc1 [compound 1081]
Ki [1]: < 500 nM | Ki [2]: < 500 nM | H-bond distance to MASP-2 GLY 656 atom O ([3]; Table A1 (H-Bonds), GLY 656 O): 2.92 | H-bond distance to MASP-2 SER 628 atom O ([3]; Table A1 (H-Bonds), SER 628 O): 2.86 | H-bond distance to MASP-2 SER 654 atom O ([3]; Table A1 (H-Bonds), SER 654 O): 2.81 | H-bond distance to MASP-2 SER 657 atom O ([3]; Table A1 (H-Bonds), SER 657 O): 2.69 | van der Waals contact distance, MASP-2 HIS 483 atom CD2 ([3]; Table A2-1): 3.74 | van der Waals contact distance, MASP-2 PHE 529 atom CD1 ([3]; Table A2-3): 3.38 | van der Waals contact distance, MASP-2 amino acid atom to compound atom ([3]; Table A2-7 continued: CYS 629 (CA)): 3.8 | van der Waals contact distance, MASP-2 amino acid atom to compound atom ([3]; Table A2-9, ARG 630, AA atoms CG, CZ): 3.76 | van der Waals contact distance, MASP-2 amino acid atom to compound atom ([3]; Table A2-9 second part, ARG 630, AA atoms N, NE, NH1): 3.81 | van der Waals contact distance, VAL 653 CG1 to compound atom ([3]; Table A2-11): 3.84 | van der Waals contact distance GLY 656 atom C ([3]; Table A2-13, MASP-2 GLY 656 C): 3.27 | van der Waals contact distance TRP 655 atom N ([3]; Table A2-13, MASP-2 TRP 655 N): 3.83 | van der Waals contact distance TRP 655 atom O ([3]; Table A2-13, MASP-2 TRP 655 O): 3.8 | van der Waals contact distance GLY 656 atom O ([3]; Table A2-14, MASP-2 GLY 656 O): 3.81 | van der Waals contact distance SER 657 atom C ([3]; Table A2-14, MASP-2 SER 657 C, columns c12-c13 (inferred)): 3.62 | Ligand-pharmacophore element distance, pharmacophore element C2 ([3]; Table A4-1, element C2): 0 | Ligand-pharmacophore element distance, pharmacophore element C3 ([3]; Table A4-1, element C3): 0 | Ligand-pharmacophore element distance, pharmacophore element C4 ([3]; Table A4-1, element C4): 1.99 | Ligand-pharmacophore element distance, pharmacophore element C5 ([3]; Table A4-1, element C5): 0 | Ligand-pharmacophore element distance, pharmacophore element C6 ([3]; Table A4-1, element C6): 0 | Ligand-pharmacophore element distance, pharmacophore element C7 ([3]; Table A4-1, element C7): 0 | Ligand-pharmacophore element distance, pharmacophore element CA1 ([3]; Table A4-1, element CA1): 0.48 | Ligand-pharmacophore element distance, pharmacophore element CA2 ([3]; Table A4-1, element CA2): 0.76 | Ligand-pharmacophore element distance, pharmacophore element CA3 ([3]; Table A4-1, element CA3): 0 | Ligand-pharmacophore element distance, pharmacophore element CA4 ([3]; Table A4-1, element CA4): 0 | Ligand-pharmacophore element distance, pharmacophore element CA5 ([3]; Table A4-1, element CA5): 0 | Ligand-pharmacophore element distance, pharmacophore element CA6 ([3]; Table A4-1, element CA6): 0 | d(CA1,N1) [3, 4]: 3.62 | d(CA1,O1) [3, 4]: 4.57 | d(CA1,O2) [3, 4]: 4.27 | d(H4,O1) [3, 4]: 5.10 | d(H4,O2) [3, 4]: 4.46 | d(O1,O2) [3, 4]: 3.45 | d(N2,C4) [3, 5]: 7.56 | d(N2,C4)4 [3, 5]: 7.56 | d(N2,CA2) [3, 5]: 6.05 | d(O2,H3) [3, 5]: 5.78 | d(O2,N2) [3, 5]: 2.76 | a(CA1, O1, O2) ([3]; Table A6-1 pharmacophore angle): 108.25 | a(O1, O2, H4) ([3]; Table A6-1 pharmacophore angle): 138.44 | A(N1, CA1, O1) a) ([3]; Table A6-1 pharmacophore angle, all compounds with protonatable center N1 except Methyl-amino-pyridine): 163.55 | a(O1, O2, H3) ([3]; Table A6-2 pharmacophore angle): 153.00 | a(O1, O2, N2) ([3]; Table A6-2 pharmacophore angle): 139.53 | a(O2, N2, C4) ([3]; Table A6-2 pharmacophore angle): 161.57 | a(O2, N2, C4) 2 ([3]; Table A6-2 pharmacophore angle): 119.80 | a(O2, N2, CA2) ([3]; Table A6-2 pharmacophore angle): 153.98 | Pharmacophore torsion angle a(H4, O1, O2, H3) [3, 6]: 36.36 | Pharmacophore torsion angle a(H4, O1, O2, N2) [3, 6]: 121.47 | Pharmacophore torsion angle a(N1, CA1, O2, H4) [3, 6]: −125.05 | Pharmacophore torsion angle a(O1, H4, O2, CA1) [3, 6]: −62.03 | Pharmacophore torsion angle a(O1, O2, N2, CA2) ([3]; Table A7-2, between pharmacophore elements of the bound compound): 142.86 | Pharmacophore protein distance to MET_658 (first MET_658 column) ([3]; Table A8-6, 6th residue column, nearest protein atom in cell to the left): 3.11 | Pharmacophore protein distance to MET_658 (second MET_658 column) ([3]; Table A8-6, 9th residue column, nearest protein atom in cell to the left): 3.70 | Pharmacophore protein distance to GLY_528 [3, 7]: 3.22 | Pharmacophore protein distance to PHE_529 [3, 7]: 3.23 | Pharmacophore protein distance to PRO_608 [3, 7]: 4.72 | Pharmacophore protein distance to SER_611 [3, 7]: 2.66 | Pharmacophore protein distance to TRP_655 ([3]; Table A8-6, pharmacophore elements C6, CA3, O3, H1, nearest protein atom in cell to the left): 3.69
